Article PMC5897741, “Thermokinetic profile of NDM-1 and its inhibition by small carboxylic acids” (Bioscience Reports, 2018)

Assays:
[1] = tested on: ImiS; settings: cited from earlier work
[2] = tested on: clinical E. coli strain expressing NDM-1 gene (E. coli–NDM-1); settings: 400 μM compound, imipenem titrated into E. coli–NDM-1 suspension; efficacy order 7 > 1 > 8
[3] = tested on: L1; settings: cited from earlier work
[4] = target: T1, NDM-1 (Klebsiella pneumoniae, UniProt C7C422); experiment: ITC multi-injection inhibition assay; format: biochemical; design: made in house; host or cells: E. coli; settings: for Kiu (uncompetitive inhibition constant): ITC inhibition assay, penicillin G, 25°C, 50 mM Tris–HCl, pH 7.0, 100 mM NaCl; for mode of inhibition: pH 7.0
Source text: Competitive (Kic) and uncompetitive (Kiu) inhibition constant values for each inhibitor were obtained by fitting calculated reaction rates (υ) at different inhibitor concentrations to (eqn 5) using nonlinear regression analysis in Origin software (embedded with ITC), with Kic and Kiu set as shared parameters between all datasets, inhibitor concentration [I], [E]tot, [S] as independent variables and υ as dependent variable.

[5] = tested on: clinical E. coli–NDM-1 strain; experiment: MIC determination, broth microdilution (CLSI); format: cell-based, Escherichia coli; settings: for synergistic effect with imipenem: 200 and 400 μM inhibitor
Protocol: Single colonies of E. coli–NDM-1 were used to inoculate Mueller–Hinton medium and were grown at 37°C overnight. […] Results were obtained after incubating the microtitre plate at 37°C for a further 18 h and turbidity of bacterial growth was recorded using a plate reader.

[6] = target: T1, NDM-1; experiment: biochemical
Protocol: Rates were also determined in the presence of inhibitor by pre-incubation with the enzyme for 30 min at RT before starting kinetic experiments. IC50 values were determined using GraphPad Prism5 software (GraphPadSoftware, La Jolla, CA, USA) by plotting percentage of inhibition against inhibitor concentration; average values from three measurements are reported.

[7] = tested on: CcrA; settings: cited from earlier work
[8] = target: T1, NDM-1; experiment: ITC single injection assay, enthalpy of β-lactam hydrolysis; format: biochemical; design: made in house; host or cells: E. coli; settings: for ΔHapp: NDM-1 catalysed hydrolysis, Tris–HCl pH 7.0, 25°C; for ΔHint: Y-axis intercept of ΔHapp vs ΔHion; for ΔHint / n (number of exchanging protons): pH 7.0; for n (number of exchanging protons): slope of ΔHapp vs ΔHion
Protocol: Real-time changes of heat-flow were recorded continuously until return to baseline. Control experiments were performed by titrating substrate to buffer and using those data in corrections for heat of dilution before values of ΔHapp were determined using the embedded Origin software, by dividing integrated heat by the molar quantity of substrate converted according to (eqn 1), where dQ/dt is the rate of heat production, V is the volume of the sample cell and [S]t = 0 is the substrate concentration: (1) ΔH=ft=0∞dQ/dtdt/(V[S](t=0))
Experiments were also repeated in HEPES and phosphate buffers and the intrinsic enthalpy change (ΔHint) of the reactions calculated according to (eqn 2) by plotting the measured ΔHapp as a function of ΔHion, where ΔHion is the ionisation enthalpy of the buffer used and n represents the number of exchanging protons. The values of ΔHion used in the calculation were ΔHion (Tris–HCl) = 11.34 kcal/mol, ΔHion (HEPES) = 4.88 kcal/mol and ΔHion (phosphate) = 0.86 kcal/mol. (2) ΔHapp=ΔHint+n ΔHion

[9] = target: T1, NDM-1; settings: ITC, pH 7.0, 25°C
Source text: Successive injections of antibiotic into the sample cell were made at 120 s intervals. Following (eqn 3), the change in thermal power (dQ/dt) from each titration was converted into the reaction rate (υ). These rates were used to fit to the Michaelis–Menten equation (eqn 4) to obtain the kinetic parameters KM (Michaelis–Menten constant) and kcat (turnover rates), where [E]tot is the total concentration of active enzyme. (3) υ=dP/dt=1/VΔHapp⋅dQ/dt (4) υ=kcat[E]tot[S]/KM+[S]

[10] = target: T1, NDM-1; design: made in house; host or cells: E. coli; method as in doi:10.1016/j.ejbas.2015.07.006; settings: cited from earlier work
[11] = tested on: IMP-1; settings: cited from earlier work
[12] = tested on: CphA; settings: cited from earlier work

T1 sequence (C7C422 29-270 limits assumed): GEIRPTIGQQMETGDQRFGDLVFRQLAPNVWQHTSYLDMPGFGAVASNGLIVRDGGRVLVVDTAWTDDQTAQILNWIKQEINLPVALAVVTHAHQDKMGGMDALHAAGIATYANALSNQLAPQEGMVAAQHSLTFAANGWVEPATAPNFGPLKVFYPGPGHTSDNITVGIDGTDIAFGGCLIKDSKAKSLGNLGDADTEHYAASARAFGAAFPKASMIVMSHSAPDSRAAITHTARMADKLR

Row | Structure (SMILES) | Ki [4] | Kiu (uncompetitive inhibition constant) [4] | mode of inhibition [4] | IC50 [6] | ΔHapp [8] | ΔHint [8] | n (number of exchanging protons) [8] | Km [9] | kcat [9] | also measured
1 | O=C(O)[C@H]1CS[C@@H](C(=O)O)N1 (racemic) [Compound 8, rac-thiazolidine-2,4-dicarboxylic acid] | 152 ± 6 µM | 5 ± 0.46 µM | predominantly uncompetitive | 3.45 ± 0.26 µM | – | – | – | – | – | effect on activity [1]: powerful effect; Ki ([1]; class B2 ImiS): 7.1 µM; inhibition of imipenem turnover in live bacteria [2]: capable of inhibiting the turnover rate of imipenem; effect on activity [3]: powerful effect; Ki ([3]; class B3 L1): 1.8 µM; MIC of imipenem in combination with inhibitor ([5]; 200 μM inhibitor): 16 µg/mL; MIC of imipenem in combination with inhibitor ([5]; 400 μM inhibitor): 8 µg/mL; reduction of MIC of imipenem ([5]; 400 μM inhibitor): 2 fold; synergistic effect with imipenem [5]: weaker synergy; effect on activity [7]: powerful effect; Ki ([7]; class B1 CcrA): 0.64 µM
2 | Cc1nnc(SCC2=C(C(=O)O)N3C(=O)[C@@H](NC(=O)Cn4cnnn4)[C@H]3SC2)s1 [Cefazolin, cefazolin] | – | – | – | – | -28.3 ± 0.97 kcal/mol | -5.20 ± 0.04 kcal/mol | −1.89 ± 0.04 | 237 ± 14 µM | 42 ± 1 s⁻¹ | ΔHapp ([8]; listed as cefazolin): –28.3 kcal/mol
3 | C[C@H](CS)C(=O)N1CCC[C@@H]1C(=O)O [Compound 1, D-Captopril, reference compound] | – | 178 ± 21 µM | – | – | – | – | – | – | – | –
4 | Cc1cc(/N=N/c2ccc(O)c(C(=O)O)c2)ccc1O [Compound 2] | – | – | – | – | – | – | – | – | – | predicted inhibition in docking [10]: predicted to inhibit NDM-1
5 | O=C(O)[C@@H](O)[C@H](O)C(=O)O [Compound 5, D-(−)-tartaric acid] | 365 ± 72 µM | 993 ± 107 µM | mainly competitive | 409 ± 16 µM | – | – | – | – | – | –
6 | O=C(O)/C=C/C(=O)O [Compound 6, fumaric acid] | 198 ± 50 µM | 638 ± 94 µM | mainly competitive | 232 ± 5 µM | – | – | – | – | – | –
7 | O=C(O)c1cccc(C(=O)O)n1 [Compound 7, pyridine-2,6-dicarboxylic acid] | 2.17 ± 0.48 µM | 2.07 ± 0.06 µM | mixed inhibitor | 1.13 ± 0.04 µM | – | – | – | – | – | inhibition of imipenem turnover in live bacteria [2]: capable of inhibiting the turnover rate of imipenem; inhibition [11]: effective inhibitor; MIC of imipenem in combination with inhibitor ([5]; 200 μM inhibitor): 4 µg/mL; MIC of imipenem in combination with inhibitor ([5]; 400 μM inhibitor): 1 µg/mL; synergistic effect with imipenem [5]: restore the susceptibility; inhibition [12]: effective inhibitor
8 | C[C@@H](O)[C@H]1C(=O)N2C(C(=O)O)=C(SCCN=CN)C[C@H]12 [Imipenem, imipenem] | – | – | – | – | -32.5 ± 0.08 kcal/mol | -18.4 ± 0.12 kcal/mol | −1.24 ± 0.02 | 168 ± 28 µM | 23 ± 1 s⁻¹ | MIC ([5]; Escherichia coli, 0 μM inhibitor, read-out: MIC of imipenem): 16 µg/mL; ΔHapp ([8]; listed as imipenem): –32.5 kcal/mol; n (number of exchanging protons) ([8]; listed as imipenem): −1.24 (± 0.02)
9 | CC1(C)S[C@@H]2[C@H](NC(=O)Cc3ccccc3)C(=O)N2[C@H]1C(=O)O [Penicillin G, penicillin G] | – | – | – | – | -27.9 ± 0.01 kcal/mol | -18.3 ± 0.73 kcal/mol | −0.87 ± 0.10 | 139 ± 12 µM | 54 ± 1 s⁻¹ | ΔHapp ([8]; listed as penicillin G): –27.9 kcal/mol; n (number of exchanging protons) ([8]; listed as penicillin G): −0.87 (± 0.10)
